Here are results for one compound from paper PMC11351458, “Bioaffinity Ultrafiltration Combined with HPLC-ESI-qTOF-MS/MS for Screening Potential Bioactive Components from the Stems of Dendrobium fimbriatum and In Silico Analysis” (Antioxidants, 2024).

Marks after values point to notes of the source that are not given here.

Assay [1] relates to NO production in RAW 264.7 cells. Put plainly: Nitric oxide (NO) inhibition assay. It counts as cell-based, murine. The conditions noted are these: Mus musculus, RAW264.7, read-out: NO Inhibition IC50. On the procedure: In this experiment, the RAW 264.7 macrophage cell line was used. The cells were stored at −196 °C in liquid nitrogen. After thawing, the cells were cultured in DMEM at 37 °C and 5% CO2 supplemented with 10% FBS, […] L-glutamine, 1 mM sodium pyruvate, 100 μg/mL streptomycin, and 100 U/mL penicillin.
NO inhibition assay was slightly modified from the reported method. The day before the experiment, RAW 264.7 cells were seeded into 96-well plates with 2 × 10^4 cells per well. The cells were pretreated with the sample solution, and then incubated at 37 °C for 1 h. After incubation, the cells were treated with 100 ng/mL of LPS to induce an inflammatory response. After incubation at 37 °C for 20 h, 50 μL of the supernatant was transferred from each well to another 96-well plate and mixed with an equal volume of Griess reagent. Finally, the absorbance was acquired at 550 nm after 20 min of incubation.

Assay [2] has as its system LPS-induced iNOS expression in RAW 264.7 murine macrophages. Briefly: Western blotting of LPS-induced iNOS expression. The conditions noted are these: 50 μM; LPS-induced RAW 264.7; Western blot. It counts as cell-based. As for the experimental part:
Western blotting was conducted with the previous procedure. Cells were treated with different concentrations of compounds and 100 ng/mL of LPS for a day. After rinsing cells with cold PBS, proteins were harvested with radioimmunoprecipitation assay buffer (RIPA buffer) and stored at −20 °C for succeeding procedure. Proteins were separated on a 12.5% SDS-polyacrylamide gel and then electrophoretically transferred to a PVDF membrane. The membrane was soaked in 2% bovine serum albumin (BSA) blocking buffer for 2 h, then washed 2–3 times with TBST. Proteins were treated by particular primary antibodies and immersed overnight. The following day, PVDF membranes were washed with TBST to remove residual primary antibodies, and then immersed with secondary antibodies for 2 h. Then, enhanced chemiluminescence solution was coated on the membrane and visualized using an ImageQuant LAS 4000 Mini Biomolecular Imager (GE Healthcare, Marlborough, MA, USA). Finally, we quantified band density by ImageJ software 1.53a (BioTechniques, New York, NY, USA).
(A western blot detects proteins with antibodies after separation by electrophoresis.)

Assay [3] in a line: DPPH radical scavenging activity. The conditions noted are these: isolated components; 50% free radical scavenging; read-out: SC50 DPPH. As for the experimental part:
The DPPH radical scavenging effect was measured based on the reported method. BHT was applied as a positive control. DPPH solution was prepared diluted by EtOH to reach the final concentration of 400 µM. Different concentrations (400, 200, 100, 50, and 25 µg/mL) of extracts or compounds (100 µL) were mixed with DPPH solution (100 µL) and incubated for 30 min at room temperature and in darkness, and the absorbance of the mixture was measured at 520 nm.
A general note: DPPH is a stable violet radical that fades when it is reduced.

The target in assay [4] is T1, inducible nitric oxide synthase (iNOS) (Mus musculus, UniProt P29477).
T1 construct: purchased Sigma-Aldrich (St. Louis, MO, USA)
Put plainly: Bioaffinity ultrafiltration assay with inducible nitric oxide synthase. The format is binding. The conditions noted are these: components of EtOAc extract; EF = (A1 − A2)/A0 × 100%. As for the experimental part:
(§1) The bioaffinity ultrafiltration assay was conducted using a previously described procedure. […] The reaction was conducted at 37 °C for 30 min, then centrifuged using a 14,000× g ultracentrifuge filter at 30 °C for 15 min. The filtrate was removed and 200 μL of Tris-HCl buffer was added to the ultracentrifuge filter and centrifuged at 14,000× g for 15 min at 30 °C. The previous step was repeated 3 times and the filtrate was removed. Then, 200 μL of methanol was added to the ultracentrifuge filter and centrifuged at 14,000× g for 15 min at 30 °C. The previous step was repeated 3 times and the filtrate was collected. The filtrate was concentrated and then dissolved in 50 μL MeOH for HPLC analysis. In addition, the processing of iNOS-ligand complexes was conducted following previously reported methods, while inducible nitric oxide synthase bioaffinity ultrafiltration assays were performed, as detailed above.
(§2) The binding affinity of compounds and enzymes using enrichment factor (EF) was assessed, and was counted as follows: A1, A2, and A0 represent the peak areas of picked compounds acquired from the extracts incubated with activated, inactivated, and no acetylcholinesterase, respectively. EF (%) = (A1 − A2)/A0 × 100%

The target of assay [5] is T2, acetylcholinesterase (AChE) (Electrophorus electricus, UniProt O42275).
T2 construct: purchased Sigma-Aldrich (St. Louis, MO, USA)
T2 sequence (O42275 24-633): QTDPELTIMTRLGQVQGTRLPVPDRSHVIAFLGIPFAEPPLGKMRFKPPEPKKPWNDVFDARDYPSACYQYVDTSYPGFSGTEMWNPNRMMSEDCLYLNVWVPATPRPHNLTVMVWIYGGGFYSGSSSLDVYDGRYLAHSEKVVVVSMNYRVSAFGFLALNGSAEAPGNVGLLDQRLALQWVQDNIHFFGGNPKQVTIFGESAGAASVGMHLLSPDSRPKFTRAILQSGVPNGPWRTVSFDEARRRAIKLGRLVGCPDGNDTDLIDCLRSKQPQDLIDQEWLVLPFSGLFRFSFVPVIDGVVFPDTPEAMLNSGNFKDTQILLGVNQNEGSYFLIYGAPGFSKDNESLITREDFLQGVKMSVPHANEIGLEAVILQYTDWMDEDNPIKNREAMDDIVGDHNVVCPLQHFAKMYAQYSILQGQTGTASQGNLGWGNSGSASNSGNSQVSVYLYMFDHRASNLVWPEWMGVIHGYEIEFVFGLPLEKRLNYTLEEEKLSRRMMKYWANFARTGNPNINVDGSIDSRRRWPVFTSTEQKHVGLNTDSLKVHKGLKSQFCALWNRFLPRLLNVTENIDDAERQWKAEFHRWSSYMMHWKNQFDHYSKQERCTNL
Put plainly: biochemical. As for the experimental part:
The acetylcholinesterase inhibitory assay was carried out applying a method described in reference. Briefly, 0.1 M sodium phosphate buffer (pH 8.0, 140 μL), DTNB (10 μL), sample (20 μL), and AChE solution (15 μL) were added to a 96-well microplate and incubated at room temperature for 10 min. Finally, the absorbance was detected with a spectrophotometer at 405 nm.
The acetylcholinesterase inhibitory effect was counted as follows (Asample and Acontrol represent the absorbance of the tested sample and control, respectively):Acetylcholinesterase inhibitory activity (%) = (Acontrol − Asample)/Acontrol × 100%

Assay [6] concerns the target T2, acetylcholinesterase (AChE). Briefly: Bioaffinity ultrafiltration assay with acetylcholinesterase. The format is binding. The conditions noted are these: components of EtOAc extract; EF = (A1 − A2)/A0 × 100%. On the procedure: as §1, §2
The nature of assay [7]: Ferric reducing antioxidant power (FRAP). The conditions noted are these: isolated components, mM Trolox equivalents per g. As for the experimental part: FRAP was measured by the method reported in the previous literature. The working solution was mixed with acetate buffer (pH 3.6), ferric chloride solution (20 mM), and TPTZ solution (10 mM TPTZ in 40 mM HCl) at a proportion of 10:1:1, respectively, and freshly prepared before being used. A total of 900 μL of the working solution was warmed to 37 °C and then mixed with 100 μL of the diluted sample, blank or standard, in a microcentrifuge tube. The tubes were vortexed in a dry bath at 37 °C for 40 min. The absorbance was measured at 593 nm. The standard curve was linear between 0 and 100 mM Trolox. Results were expressed as mM TE/g dry weight. Additional dilution was needed if the FRAP value measured was over the linear range of the standard curve.

A short description of assay [8]: ABTS cation radical scavenging activity. The note with it: isolated components; 50% free radical scavenging; read-out: SC50 ABTS. As for the experimental part: The ABTS cation radical scavenging effect was measured, as previously described by. […] The working solution was diluted by EtOH to reach the absorbance of 0.70 ± 0.02 at 740 nm for further experiments. Different concentrations (400, 200, 100, 50, and 25 µg/mL) of extracts or compounds (10 µL) were mixed with the working solution (190 μL). The mixture was incubated at room temperature for 6 min, and the antioxidant activity of the mixture was determined by the decrease in absorbance measured at 740 nm.

In the next assay the target is α-glucosidase. Put plainly: α-Glucosidase inhibitory activity assay. The note with it: isolated compounds. The format is biochemical. As for the experimental part:
To test the anti-α-glucosidase effect of each solvent extract and each component, a previously described method was used. […] The α-glucosidase solution was diluted to 1 U/mL with 0.1 M sodium phosphate buffer (pH 6.8). Various concentrations of extract or compound (100 µL) and α-glucosidase solution (20 µL) were mixed. Subsequently, 0.53 mM p-NPG (380 µL) was added and incubated at 37 °C for 40 min. The reaction was stopped by adding 500 μL of 0.1 M Na2CO3 solution, and the absorbance was detected at 405 nm.
α-glucosidase inhibition (%) was counted as follows (Asample and Acontrol represent the absorbance of the tested sample and control, respectively):α-glucosidase inhibition (%) = (Acontrol − Asample)/Acontrol × 100%

A short description of assay [9]: Superoxide radical scavenging activity. The note with it: isolated components; 50% free radical scavenging; read-out: SC50 Superoxide. On the procedure:
A superoxide radical scavenging assay was performed based on previously reported methods. The superoxide radical was generated in 16 mM Tris-HCl buffer (pH 8.0) containing 50 μL of NBT (300 μM), 50 μL of PMS (120 μM), and 50 μL of different concentrations of the test sample. The reaction was initiated by adding 50 μL of NADH (468 μM) solution to the mixture. After incubating at room temperature for 5 min, the activity of samples was determined by the decrease in absorbance measured at 560 nm against the sample concentration.

Broadly, the IC50 is the concentration that gives 50% inhibition. As to `COc1cc(O)cc2ccc3cccc(O)c3c12` [Moscatin (2), moscatin], the figures for the IC50 (in assay [1]; in assay [5]; against α-glucosidase) were 23.5 ± 3.16 µM, 162 ± 16.5 µM and 478 ± 33.4 µM, respectively. Moreover, the “inhibition of iNOS expression” value in [2] is 69.76%. For the same compound, the figures for the EC50 in [3], in assay [8] and in assay [9] were 26.7 ± 1.63 µM, 10.3 ± 1.92 µM and over 400 µM, respectively. For the same compound, the “iNOS EF (enrichment factor)” value in [4] is listed as 88.99%. Besides, the “AChE EF (enrichment factor)” value in [6] is 66.31%. The results for the “TE FRAP” value in [7] and in assay [7] (listed as moscatin) were 1396.40 ± 57.03 ^c mM/g and 1396.40 ± 57.03 mM/g, respectively.
